Data set [1] relates to Key Broadleaf Weed and Crop Species. The data set is described as follows: Post-emergent Test II herbicidal activity (Table 5). The conditions noted are these: post-emergence, 336 h, post-emergent, 14 days after application; for pest or weed control at 140 g/ha: 140 g ai/ha; for pest or weed control at 70 g/ha: 70 g ai/ha. Type of data set: in vivo. Summed up: (§1)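 Test species were raised 7–21 d under greenhouse conditions until reaching the first or second true leaf, sprayed with formulated compound at 187 L/ha, and kept subirrigated to avoid wash-off. Fourteen days later, damage was rated visually on a 0–100% scale against untreated plants.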

Data set [2] concerns Key Grass and Sedge Weeds as well as Grass Crops. Put plainly: Post-emergent Test II herbicidal activity (Table 6). The format is in vivo. To be noted: post-emergence, 336 h; for pest or weed control at 140 g/ha: application rate 140 g ai/ha; for pest or weed control at 70 g/ha: application rate 70 g ai/ha. Summed up:
as §1

Setting [3] is: ABUTH: velvetleaf (Abutilon theophrasti), read-out: Visual Growth Reduction (%) 14 Days After Application ABUTH.
The mark [4] stands for this setting: AMARE: redroot pigweed (Amaranthus retroflexus), read-out: Visual Growth Reduction (%) 14 Days After Application AMARE.
[5] abbreviates: BRSNN: oilseed-rape, canola (Brassica napus), read-out: Visual Growth Reduction (%) 14 Days After Application BRSNN.
[6] abbreviates: CHEAL: lambsquarters (Chenopodium album), read-out: Visual Growth Reduction (%) 14 Days After Application CHEAL.
The mark [7] stands for this setting: EPHHL: wild poinsettia (Euphorbia heterophylla), read-out: Visual Growth Reduction (%) 14 Days After Application EPHHL.
Setting [8] is: HELAN: sunflower (Helianthus annuus), read-out: Visual Growth Reduction (%) 14 Days After Application HELAN.
Where [9] appears, read: VIOTR: wild pansy (Viola tricolor), read-out: Visual Growth Reduction (%) 14 Days After Application VIOTR.
Where [10] appears, read: CYPES: yellow nutsedge (Cyperus esculentus), read-out: Visual Growth Reduction (%) 14 Days After Application, CYPES.
Setting [11] is: DIGSA: crabgrass (Digitaria sanguinalis), read-out: Visual Growth Reduction (%) 14 Days After Application, DIGSA.
Setting [12] is: ECHCG: barnyardgrass (Echinochloa crus-galli), read-out: Visual Growth Reduction (%) 14 Days After Application, ECHCG.
The mark [13] stands for this setting: ORYSA: rice (Oryza sativa), read-out: Visual Growth Reduction (%) 14 Days After Application, ORYSA.
Where [14] appears, read: SETFA: giant foxtail (Setaria faberi), read-out: Visual Growth Reduction (%) 14 Days After Application, SETFA.
Setting [15] is: SORVU: grain sorghum (Sorghum vulgare), read-out: Visual Growth Reduction (%) 14 Days After Application, SORVU.
Where [16] appears, read: ZEAMX: maize, corn (Zea mays), read-out: Visual Growth Reduction (%) 14 Days After Application, ZEAMX.
Where [17] appears, read: TRZSS (wheat, Triticum aestivum), read-out: Visual Growth Reduction (%) 14 Days After Application, TRZSS.

Read-outs that look alike come from different tables or passages of the source.

The term melting point denotes the temperature of the solid-liquid transition.

Regarding `C#Cc1ccc(-c2nc(N)c(OC)c(C(=O)O)n2)cc1` [Compound 28], the melting point lay within 170.7 to 171.3 °C. The pest or weed control at 140 g/ha in data set [1] (setting [3]) lay in the range of 0 to 29%. Besides, the pest or weed control at 140 g/ha in data set [1] (setting [4]) fell in the range of 95 to 100%. For the same compound, in data set [1] (setting [5]), the pest or weed control at 140 g/ha fell in the range of 0 to 29%. In data set [1] (setting [6]), the pest or weed control at 140 g/ha is 95 to 100%. For the same compound, the pest or weed control at 140 g/ha in data set [1] (setting [7]) was in the range of 95 to 100%. In data set [1] (setting [8]), the pest or weed control at 140 g/ha is 85 to 94%. Also, in data set [1] (setting [9]), the pest or weed control at 140 g/ha fell in the range of 0 to 29%. For the same compound, the pest or weed control at 140 g/ha in data set [2] (Triticum aestivum, TRZSS (wheat), read-out: Visual Growth Reduction (%) 14 Days After Application, TRZSS) was in the range of 0 to 29%. The pest or weed control at 140 g/ha in data set [2] (setting [10]) lay in the range of 0 to 29%. For the same compound, the pest or weed control at 140 g/ha in data set [2] (setting [11]) lay in the range of 60 to 74%. Moreover, the pest or weed control at 140 g/ha in data set [2] (setting [12]) was in the range of 0 to 29%. Moreover, the pest or weed control at 140 g/ha in data set [2] (setting [13]) was in the range of 0 to 29%. For the same compound, in data set [2] (setting [14]), the pest or weed control at 140 g/ha lay in the range of 45 to 59%. Besides, in data set [2] (setting [15]), the pest or weed control at 140 g/ha fell in the range of 0 to 29%. Moreover, the pest or weed control at 140 g/ha in data set [2] (setting [16]) is 60 to 74%.
In turn, `COC(=O)c1nc(-c2cc(F)c(C(F)F)cc2F)nc(N)c1OC` [Compound 193] had a melting point of 127.9 to 129.2 °C. Moreover, in data set [1] (setting [3]), the pest or weed control at 70 g/ha lay within 60 to 74% and the pest or weed control at 140 g/ha was in the range of 75 to 84%. In addition, in data set [1] (setting [4]), the pest or weed control at 70 g/ha was in the range of 75 to 84% and the pest or weed control at 140 g/ha fell in the range of 95 to 100%. Moreover, in data set [1] (setting [5]), the pest or weed control at 70 g/ha fell in the range of 60 to 74% and the pest or weed control at 140 g/ha is 60 to 74%. Moreover, in data set [1] (setting [6]), the pest or weed control at 70 g/ha lay in the range of 85 to 94% and the pest or weed control at 140 g/ha fell in the range of 95 to 100%. In addition, in data set [1] (setting [7]), the pest or weed control at 70 g/ha was 85 to 94% and the pest or weed control at 140 g/ha was in the range of 95 to 100%. In addition, in data set [1] (setting [8]), the pest or weed control at 70 g/ha was 60 to 74% and the pest or weed control at 140 g/ha was in the range of 75 to 84%. Further, in data set [1] (setting [9]), the pest or weed control at 70 g/ha is 0 to 29% and the pest or weed control at 140 g/ha lay within 30 to 44%. In data set [2] (setting [10]), the pest or weed control at 70 g/ha was in the range of 30 to 44% and the pest or weed control at 140 g/ha fell in the range of 45 to 59%. Moreover, in data set [2] (setting [11]), the pest or weed control at 70 g/ha is 0 to 29% and the pest or weed control at 140 g/ha is 0 to 29%. Besides, in data set [2] (setting [12]), the pest or weed control at 70 g/ha fell in the range of 0 to 29% and the pest or weed control at 140 g/ha lay within 0 to 29%. Moreover, in data set [2] (setting [13]), the pest or weed control at 70 g/ha lay within 0 to 29% and the pest or weed control at 140 g/ha lay within 0 to 29%. Further, in data set [2] (setting [14]), the pest or weed control at 70 g/ha lay in the range of 0 to 29% and the pest or weed control at 140 g/ha was 45 to 59%. Further, in data set [2] (setting [15]), the pest or weed control at 70 g/ha fell in the range of 0 to 29% and the pest or weed control at 140 g/ha lay within 45 to 59%. Further, in data set [2] (setting [17]), the pest or weed control at 70 g/ha was in the range of 0 to 29% and the pest or weed control at 140 g/ha is 30 to 44%. For the same compound, in data set [2] (setting [16]), the pest or weed control at 70 g/ha is 0 to 29% and the pest or weed control at 140 g/ha fell in the range of 0 to 29%.

These data come from patent US9113629B2, “4-amino-6-(4-substituted-phenyl)-picolinates and 6-amino-2-(4-substituted-phenyl)-pyrimidine-4-carboxylates and their use as herbicides” (DOW AGROSCIENCES LLC, priority 2013, dated 2015).
